The record followed here is ChEMBL document CHEMBL1146816, “Design, synthesis, and evaluation of estradiol-linked genotoxicants as anti-cancer agents” (Bioorg Med Chem Lett, 2004).

Each structure is given as a SMILES string.

Data set [1] in a line: LogD at pH 7.4. Format: physicochemical. As to conditions: buffer.
Data set [2] is described as follows: Partition coefficient (logP). The data set is classed as physicochemical. As to conditions: octanol/water.
Data set [3] concerns MCF7. The experiment in a line: Dose required for 30% clonal survival of ER positive MCF-7 breast cancer cells after 2 hr. Format: functional, Homo sapiens.
Data set [4] deals with MDA-MB-231. Briefly: Dose required for 30% clonal survival of ER negative MDA-MB-231 breast cancer cells after 2 hr. The data set is classed as functional, Homo sapiens.
Data set [5] has as its target Estrogen receptor (Homo sapiens) (UniProt Q92731+P03372). The experiment in a line: Percent of covalently modified 16-mer (DNA adduct) in a slowly migrating complex with ER ligand binding domain (ER-LBD) in EMSA electrophoretic mobility shift assay. Format: functional.
Data set [6] can be described thus: Percent of 16-mer cleaved by piperidine after treatment with test compound for 24 hr at 37 degrees C. The data set is classed as functional.

For the compound `C[C@]12CC[C@@H]3c4ccc(O)cc4C[C@@H](CCCCCC/N=C(/N)NCCCc4ccc(N(CCCl)CCCl)cc4)[C@H]3[C@@H]1CC[C@@H]2O`, the logD (as a rule, the decadic logarithm of the distribution of all forms, ionised or not, between an organic phase and buffer at a given pH) in data set [1] was 2.52. Moreover, the logP – broadly, the decadic logarithm of the partition coefficient of the neutral form, usually between octanol and water – in data set [2] is 5.67. The ED30 in data set [3] and in data set [4] was above 20 µM in each case. Further, the Oligo shifted in data set [5] is 38%. This compound also yielded an Oligo modified in data set [6] of 58%.

Turning to `C[C@]12CC[C@@H]3c4ccc(O)cc4C[C@@H](CCCCCCNCCOC(=O)NCCCc4ccc(N(CCCl)CCCl)cc4)[C@H]3[C@@H]1CC[C@@H]2O`, in data set [1], the logD is 2.22. In addition, in data set [2], the lipophilicity (logP) came out at 5.32. For the same compound, the ED30 in data set [3] worked out at 5.1 µM; in data set [4], 9.6 µM. For the same compound, the Oligo shifted in data set [5] is 93%. Further, the Oligo modified in data set [6] stood at 45%.

`C[C@]12CC[C@@H]3c4ccc(O)cc4C[C@@H](CCCCCCOC(=O)NCCCc4ccc(N(CCCl)CCCl)cc4)[C@H]3[C@@H]1CC[C@@H]2O` showed a pH-dependent lipophilicity (logD) in data set [1] of 5.61. The compound also displayed a logP in data set [2] of 5.61. Also, the ED30 in data set [3] and in data set [4] was above 20 µM throughout. In data set [6], the Oligo modified was 3%.

In turn, `C[C@]12CC[C@@H]3c4ccc(O)cc4C[C@@H](CCCCCCNCC/N=C(/N)NCCCc4ccc(N(CCCl)CCCl)cc4)[C@H]3[C@@H]1CC[C@@H]2O` showed a logD in data set [1] of 3.12. Further, the logP in data set [2] turned out to be 6.27. Further, the ED30 in data set [3] and in data set [4] was above 20 µM throughout. Besides, the Oligo shifted in data set [5] was 93%. In addition, the Oligo modified in data set [6] was 29%.

In data set [1], `C[C@]12CC[C@@H]3c4ccc(O)cc4C[C@@H](CCCCCCNC(=O)CCCc4ccc(N(CCCl)CCCl)cc4)[C@H]3[C@@H]1CC[C@@H]2O` showed a logD of 5.07. Besides, the logP in data set [2] stood at 5.07. Moreover, the ED30 was above 20 µM in data set [3] and 20 µM in data set [4]. In data set [6], this compound showed an Oligo modified of 14%.

For the compound `C[C@]12CC[C@@H]3c4ccc(O)cc4C[C@@H](CCCCCCNCCCCc4ccc(N(CCCl)CCCl)cc4)[C@H]3[C@@H]1CC[C@@H]2O`, the logD in data set [1] turned out to be 2.87. This compound returned a logP in data set [2] of 5.96. The ED30 in data set [3] was 5.1 µM; in data set [4] it was 8.6 µM. In addition, the Oligo shifted in data set [5] was found to be 67%. In addition, the Oligo modified in data set [6] came out at 44%.

Take `C[C@]12CC[C@@H]3c4ccc(O)cc4C[C@@H](CCCCCCNC(=O)CCCNC(=O)CCCc4ccc(N(CCCl)CCCl)cc4)[C@H]3[C@@H]1CC[C@@H]2O`: the logD in data set [1] stood at 4.85. This compound also showed a logP in data set [2] of 4.85. For the same compound, the ED30 in data set [3] and in data set [4] was above 20 µM throughout. The Oligo modified in data set [6] was found to be 39%.

In turn, `C[C@]12CC[C@@H]3c4ccc(O)cc4C[C@@H](CCCCCCNCCCCNCCCCc4ccc(N(CCCl)CCCl)cc4)[C@H]3[C@@H]1CC[C@@H]2O` showed a logD in data set [1] of 2.22. The lipophilicity (logP) in data set [2] stood at 5.32. The results for the ED30 in data set [3] and in data set [4] were 5.1 µM and 7.9 µM, respectively. Moreover, the Oligo shifted in data set [5] worked out at 38%. In data set [6], this compound registered an Oligo modified of 79%.
